Reference: patent US20250051340A1, “TRIAZOLONE DERIVATIVE SALT AS NEUTROPHIL ELASTASE INHIBITOR” (CHIESI FARMACEUTICI S.P.A., priority 2021, published 2025)
Where two headings read alike, the source gives them in different places. Each block holds one molecule with its values, some of them ahead of it.

What was measured:
[1] = Head-out plethysmography (HOP) assay, lung function parameters; conditions: male Wistar rats, single snout-only inhalation, dry powder, 0.7 and 7 mg/kg, during or after dosing
[2] = Solubility in water at RT; type: physicochemical
Method: The complete dissolution of the material was visually observed.
A saturated solution of hemi-pamoate salt in water at RT was prepared, with a theoretical concentration of about 2 mg/ml. The solid in excess was filtered out and the content of the solution was quantified by LC/UV at different check points until 24 hours.

[3] = rat, in vivo
[4] = target: T1, human neutrophil elastase (HNE) (Homo sapiens, UniProt P08246); experiment: HNE-induced lung injury assay (BAL fluid haemoglobin content); type: in vivo, rat; conditions: i.t.; for % Inhibition of HNE-induced BAL fluid haemoglobin content at 3 μg/Kg / % Inhibition of HNE-induced BAL fluid haemoglobin content at 30 μg/Kg / % Inhibition of HNE-induced BAL fluid haemoglobin content at 300 μg/Kg: male Sprague Dawley rats, wet formulation, 3 h before HNE 100 U/rat, vs HNE-treated vehicle control
T1 sequence (P08246 30-267): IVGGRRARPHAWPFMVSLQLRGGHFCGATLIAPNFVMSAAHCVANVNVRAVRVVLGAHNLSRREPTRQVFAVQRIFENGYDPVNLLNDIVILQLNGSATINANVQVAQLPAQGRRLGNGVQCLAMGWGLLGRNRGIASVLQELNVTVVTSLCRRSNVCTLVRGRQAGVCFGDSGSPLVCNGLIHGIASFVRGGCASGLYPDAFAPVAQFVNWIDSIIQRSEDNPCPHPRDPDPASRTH
Method: Then, one hour after the PBS or HNE administration animals were sacrificed and bronchoalveolar lavage (BAL) was performed in order to assess the HNE-induced lung injury measured as haemoglobin concentration. BAL fluid samples were centrifuged at 800 g for 15 min at 4° C. The supernatant was collected, and the pellet was re-suspended in 3 mL of distilled water. A standard curve with known volumes of lysated blood cells was made from a stem solution of lysated blood cells. 150 µL of standards and samples were transferred in duplicate to a 96-well plate and the OD measured at 412 nm. Percentage of compound efficacy (assessed as inhibition of HNE-induced haemoglobin content in BALF) was calculated following this formula: 100−[(mean of haemoglobin concentration of test compound treated rats exposed to HNE)−(mean of haemoglobin concentration of vehicle treated rats exposed to PBS)]/[(mean of haemoglobin concentration of vehicle treated rats exposed to HNE)−(mean of haemoglobin concentration of vehicle treated rats exposed to PBS)]×100.

[5] = thermodynamic from solid, read-out: Solubility

Molecule: (2-{5-Cyano-2-[(R)-6-methoxycarbonyl-7-methyl-3-oxo-8-(3-trifluoromethyl-phenyl)-2,3,5,8-tetrahydro-[1,2,4]triazolo[4,3-a]pyrimidin-5-yl]-phenyl}-ethyl)-trimethyl-ammonium hemi-pamoate
effect on lung function parameters (respiratory rate, tidal volume, PenH) [1]: does not affect any lung function parameters

solubility ([2]; methanesulfonate): >200 mg/mL
solubility [2, 5]: > 200 mg/mL
% of Reduction of tidal volume ([3]; male, Wistar): 35-39%
increase of PenH compared to vehicle ([3]; male, Wistar, 0.6 mg/kg): about 8 fold
increase of respiratory rate, peak effect ([3]; male, Wistar, 0.6 mg/kg): 32%
reduction of tidal volume, peak effect ([3]; male, Wistar, 0.6 mg/kg): 35%
increase of PenH compared to vehicle ([3]; male, Wistar, 6 mg/kg): ~16 fold
increase of respiratory rate, peak effect ([3]; male, Wistar, 6 mg/kg): 54%
reduction of tidal volume, peak effect ([3]; male, Wistar, 6 mg/kg): 39%
Molecule: COC(=O)C1=C(C)N(c2cccc(C(F)(F)F)c2)c2n[nH]c(=O)n2[C@@H]1c1ccc(C#N)cc1CC[N+](C)(C)C.CS(=O)(=O)[O-] [Methanesulfonate, (2-{5-Cyano-2-[(R)-6-methoxycarbonyl-7-methyl-3-oxo-8-(3-trifluoromethyl-Phenyl)-2,3,5,8-tetrahydro-[1,2,4]triazolo[4,3-a]Pyrimidin-5-yl]-phenyl}-ethyl)-trimethyl-ammonium methanesulfonate]
% Inhibition of HNE-induced BAL fluid haemoglobin content at 3 μg/Kg [4]: 19%
% Inhibition of HNE-induced BAL fluid haemoglobin content at 30 μg/Kg ([4]; 30 μg/kg): 30%
% Inhibition of HNE-induced BAL fluid haemoglobin content at 300 μg/Kg ([4]; 300 μg/kg): 73%

solubility [2, 5]: 0.17 mg/mL
Molecule: COC(=O)C1=C(C)N(c2cccc(C(F)(F)F)c2)c2n[nH]c(=O)n2[C@@H]1c1ccc(C#N)cc1CC[N+](C)(C)C [Hemi-pamoate, (2-{5-Cyano-2-[(R)-6-methoxycarbonyl-7-methyl-3-oxo-8-(3-trifluoromethyl-phenyl)-2,3,5,8-tetrahydro-[1,2,4]triazolo[4,3-a]pyrimidin-5-yl]-phenyl}-ethyl)-trimethyl-ammonium hemi-pamoate]
% of Reduction of tidal volume [3]: No variation of any lung function parameters
% Inhibition of HNE-induced BAL fluid haemoglobin content at 3 μg/Kg [4]: 30%
% Inhibition of HNE-induced BAL fluid haemoglobin content at 30 μg/Kg ([4]; 30 μg/kg): 43%
% Inhibition of HNE-induced BAL fluid haemoglobin content at 300 μg/Kg ([4]; 300 μg/kg): 80%
inhibition of BAL fluid haemoglobin levels, dry powder, 30 μg/kg ([4]; rats, dry powder formulation, 30 μg/kg, vs HNE-treated vehicle (lactose) control): 4%
inhibition of BAL fluid haemoglobin levels, dry powder, 300 μg/kg ([4]; rats, dry powder formulation, 300 μg/kg, vs HNE-treated vehicle (lactose) control): 54%
inhibition of BAL fluid haemoglobin levels, dry powder, 600 μg/kg ([4]; rats, dry powder formulation, 600 μg/kg, vs HNE-treated vehicle (lactose) control): 60%

% of Reduction of tidal volume ([3]; male, Wistar): 38%
increase in PenH area compared to vehicle ([3]; male, Wistar, 0.55 mg/kg): about 8 fold
increase in respiratory rate, maximum effect ([3]; male, Wistar, 0.55 mg/kg): 59%
increase in PenH area compared to vehicle ([3]; male, Wistar, 5.5 mg/kg): ~20 fold
reduction in tidal volume, maximum ([3]; male, Wistar, 5.5 mg/kg): 38%
Molecule: COC(=O)C1=C(C)N(c2cccc(C(F)(F)F)c2)c2n[nH]c(=O)n2[C@@H]1c1ccc(C#N)cc1CC[N+](C)(C)C.[Br-] [Bromide, (2-{5-Cyano-2-[(R)-6-methoxycarbonyl-7-methyl-3-oxo-8-(3-trifluoromethyl-phenyl)-2,3,5,8-tetrahydro-[1,2,4]triazolo[4,3-a]pyrimidin-5-yl]-phenyl}-ethyl)-trimethyl-ammonium bromide]
